The test system of data set [1] is hair cell (neuromast) of Zebrafish. As to the kind of experiment: Staining of hair cell (neuromast) of Zebrafish juveniles with probe, fluorescence stereomicroscope image visually evaluated. It is filed as in vivo. The arrangement: Fluorescence intensity: key to the marks not given beside the values. The following applies: dye concentration 1 μg/mL; for Pattern of the neuromast stained (FIGS. 1 to 3): Zebrafish juveniles, in words; for Fluorescence intensity / Staining pattern: 1 hour, Zebrafish juveniles Day 7 after fertilization. On the procedure: A staining compound (1) was dissolved in DMSO to prepare a stock solution at a concentration of 1 mg/mL. The stock solution was diluted with distilled water to prepare a hair cell staining solution 1 having a dye concentration of 1 μg/mL. Further, Egg Water was prepared by dissolving artificial seawater SEALIFE (manufactured by Marinetech Co., Ltd.) in distilled water at a concentration of 60 mg/L. Five juveniles (embryos on Day 7 after fertilization) of Zebrafish were placed into any one of wells of a 24-well multiwell plate together with feeding water. The feeding water was discharged and 1 mL of the hair cell staining solution 1 was added. After the whole had been left to stand for 1 hour, the hair cell staining solution 1 in the well was discharged and replaced by 1 mL of fresh Egg Water. In addition, such an operation that Egg Water was discharged and replaced by 1 mL of fresh Egg Water was repeated twice. One of the juveniles was taken out from the well onto a dish, the motion of the juvenile was restricted by addition of methylcellulose, and a fluorescence image was captured with a fluorescence stereomicroscope. MZ16FA manufactured by Leica Microsystems K.K. was used as a stereoscopic microscope.
An image pickup unit (a digital camera DP72 for a microscope manufactured by Olympus Corporation) of a fluorescence stereomicroscope was remodeled by removing an IR cut filter so as to capture a fluorescence image in a near-infrared wavelength region.

The nature of data set [2]: Excitation and fluorescence emission wavelength measured with fluorescence spectrophotometer. Format: physicochemical. The following applies: aqueous solution, 10 mg/mL DMSO solution diluted 500-fold with purified water.

`O=S(=O)(O)CCN1/C(=C\C=C\c2oc3ccc(-c4ccccc4)cc3[n+]2CCS(=O)(=O)O)Oc2ccc(-c3ccccc3)cc21` [Staining compound 25]: the “Pattern of the neuromast stained (FIGS. 1 to 3)” value in data set [1] is recorded as “a portion with a smaller neuromast is selectively stained”.
Same read-out and setting: under `CCN1C=C/C(=C/C=C/c2oc3ccccc3[n+]2CC)c2ccccc21` [Staining compound 50] stands “a portion with a bigger neuromast is selectively stained”; under `COc1ccc(N2c3ccc(/C=C/C4=[N+](C)c5ccccc5C4(C)C)cc3C3CCCC32)cc1` (stereo not drawn) [Staining compound 53], “both a portion with a bigger neuromast and a portion with a smaller neuromast are simultaneously stained”.
As to `O=C(O)C[n+]1c(/C=C/c2ccc3c(c2)C2CCCC2N3c2ccc(C=C(c3ccccc3)c3ccccc3)cc2)oc2ccccc21` (stereo not drawn) [compound 1], the Fluorescence intensity result in data set [1] is recorded as “+++”. Also, in data set [2], the Excitation wavelength λex turned out to be 570 nm and the Fluorescence emission wavelength λem stood at 657 nm.
In the case of `COc1ccc2cc(N3c4ccc(/C=C/c5sc6ccccc6[n+]5CC(=O)O)cc4C4CCCC43)ccc2c1` (stereo not drawn) [compound 4], in data set [1], the Fluorescence intensity result is “+++”. Also, in data set [2], the Excitation wavelength λex stood at 401 nm and the Fluorescence emission wavelength λem came to 516 nm.
For the molecule `O=C(O)C[n+]1c(/C=C/c2ccc3c(c2)C2CCCC2N3c2ccccc2)sc2ccccc21` (stereo not drawn) [compound 6], the Fluorescence intensity entry in data set [1] is “+++”. In data set [2], the Excitation wavelength λex stood at 545 nm and the Fluorescence emission wavelength λem turned out to be 636 nm.
As to `COc1ccc(N2c3ccc(/C=C/c4sc5ccccc5[n+]4CC(=O)O)cc3C3CCCC32)cc1` (stereo not drawn) [compound 8], the Fluorescence intensity entry in data set [1] is “+++”. In data set [2], the Excitation wavelength λex was determined as 560 nm and the Fluorescence emission wavelength λem stood at 677 nm.
Regarding `O=C(O)C[n+]1c(/C=C/c2ccc3c(c2)C2CCCC2N3Cc2ccccc2)sc2ccccc21` (stereo not drawn) [compound 15], the Fluorescence intensity entry in data set [1] is “+++”. In data set [2], this molecule yielded an Excitation wavelength λex of 566 nm and a Fluorescence emission wavelength λem of 611 nm.
In the case of `CCC(=C\c1oc2ccc(-c3ccccc3)cc2[n+]1CC)/C=C1/Oc2ccc(-c3ccccc3)cc2N1CC` [compound 16], in data set [1], the Fluorescence intensity entry is recorded as “+++” and the Staining pattern entry is given as “S”. Further, in data set [2], the Excitation wavelength λex stood at 459 nm and the Fluorescence emission wavelength λem stood at 564 nm.
On the same counts, the results for `O=S(=O)(O)CCN1/C(=C\C=C\c2oc3ccc(-c4ccccc4)cc3[n+]2CCS(=O)(=O)O)Oc2ccc(-c3ccccc3)cc21` [compound 25] are “+++”, “S”, 470 nm and 558 nm.
Take `CC(=C\c1oc2ccccc2[n+]1CCC(=O)O)/C=C1/Oc2ccccc2N1CCC(=O)O` [compound 28]: the Fluorescence intensity result in data set [1] is given as “+++”. In data set [2], this molecule showed an Excitation wavelength λex of 429 nm and a Fluorescence emission wavelength λem of 503 nm.
`CCC(=C\c1sc2ccccc2[n+]1CC)/C=C1/Sc2ccccc2N1CC` [compound 39]: the Fluorescence intensity result in data set [1] was “+++”. In data set [2], this molecule gave an Excitation wavelength λex of 563 nm and a Fluorescence emission wavelength λem of 569 nm.
Taken in the same sequence, the figures for `CCC(=C\c1sc2c3ccccc3ccc2[n+]1CC)/C=C1/Sc2c(ccc3ccccc23)N1CC` [compound 40] were “+++”, 344 nm and 381 nm.
For the molecule `CN1/C(=C\C=C\C2=[N+](C)c3ccccc3C2(C)C)C(C)(C)c2ccccc21` [compound 43], the Fluorescence intensity entry in data set [1] is “+++”. In data set [2], this molecule yielded an Excitation wavelength λex of 473 nm and a Fluorescence emission wavelength λem of 564 nm.
Taken in the same sequence, the figures for `CCN1/C(=C\C(C)=C\c2sc3ccccc3[n+]2CC)Sc2ccccc21` [compound 45] were “+++”, 560 nm and 628 nm.
On the same counts, the results for `CCN1/C(=C\C(C)=C\c2sc3c4ccccc4ccc3[n+]2CC)Sc2c1ccc1ccccc21` [compound 47] are “+++”, 354 nm and 469 nm.
Taken in the same sequence, the figures for `CCN1C=C/C(=C/C=C/c2oc3ccccc3[n+]2CC)c2ccccc21` [compound 50] were “+++”, 571 nm and 620 nm.
For `CC1(C)C(/C=C/c2ccc3c(c2)C2CCCC2N3c2ccc(C=C(c3ccccc3)c3ccccc3)cc2)=[N+](CCC(=O)O)c2ccccc21` (stereo not drawn) [compound 51], in data set [1], the Fluorescence intensity entry is listed as “+++” and the Staining pattern entry is recorded as “S”. In data set [2], this molecule had an Excitation wavelength λex of 611 nm and a Fluorescence emission wavelength λem of 720 nm.
On to `COc1ccc(N2c3ccc(/C=C/C4=[N+](C)c5ccccc5C4(C)C)cc3C3CCCC32)cc1` (stereo not drawn) [compound 53], for which the Fluorescence intensity entry in data set [1] is recorded as “+++”. In data set [2], this molecule displayed an Excitation wavelength λex of 614 nm and a Fluorescence emission wavelength λem of 669 nm.
For `CC/N=c1\cc2oc3cc(NCC)c(C)cc3c(-c3ccccc3C(=O)OCC)c-2cc1C` [compound 54], in data set [1], the Fluorescence intensity result is “+++”. In data set [2], this molecule registered an Excitation wavelength λex of 528 nm and a Fluorescence emission wavelength λem of 550 nm.
Regarding `CCCCNS(=O)(=O)c1ccc(-c2c3ccc(=[N+](CC)CC)cc-3oc3cc(N(CC)CC)ccc23)c(S(=O)(=O)O)c1.[Na+]` [compound 57], in data set [1], the Fluorescence intensity result is given as “+++”. Besides, in data set [2], the Excitation wavelength λex is 570 nm and the Fluorescence emission wavelength λem came out at 589 nm.
As for `O=S(=O)(O)c1ccccc1-c1c2cc/c(=N/CCO)cc-2oc2cc(NCCO)ccc12` [compound 58], in data set [1], the Fluorescence intensity entry is listed as “+++”. In data set [2], the Excitation wavelength λex is 480 nm and the Fluorescence emission wavelength λem is 509 nm.
With `CCC[N+](CCC)=c1ccc2c(-c3ccccc3S(=O)(=O)O)c3ccc(Nc4c(C)cccc4C)cc3oc-2c1.[Na+]` [compound 60], in data set [1], the Fluorescence intensity result is on record as “+++”. Besides, in data set [2], the Excitation wavelength λex turned out to be 509 nm and the Fluorescence emission wavelength λem stood at 578 nm.
For the molecule `CCCC/N=c1/ccc2c(-c3ccccc3S(=O)(=O)O)c3ccc(NCCCC)cc3oc-2c1` [compound 63], in data set [1], the Fluorescence intensity entry is “+++”. In data set [2], this molecule came in with an Excitation wavelength λex of 490 nm and a Fluorescence emission wavelength λem of 560 nm.
Taken in the same sequence, the figures for `CCN1/C(=C/C=C/C=C/C=C/C2=[N+](CC)c3ccccc3C23CCCCC3)C2(CCCCC2)c2ccccc21` [compound 67] were “+++”, 750 nm and 780 nm.
On the same counts, the results for `CN1/C(=C/C=C/C=C/C=C/C2=[N+](C)c3ccccc3C2(C)C)C(C)(C)c2ccccc21` [compound 68] are “+++”, 730 nm and 760 nm.
Taken in the same sequence, the figures for `CN1\C(=C/C=C/C=C/C2=[N+](C)c3ccc4ccccc4c3C2(C)C)C(C)(C)c2c1ccc1ccccc21` [compound 69] were “+++”, 670 nm and 700 nm.
`CCN1C=C/C(=C\C=c2\s/c(=C/c3sc4ccccc4[n+]3CC)n(CC)c2=O)c2ccccc21` [compound 70]: in data set [1], the Fluorescence intensity result is listed as “+++”. In data set [2], this molecule yielded an Excitation wavelength λex of 660 nm and a Fluorescence emission wavelength λem of 690 nm.
